We go through 19 compounds from patent US10219516B2, “Molecules having pesticidal utility, and intermediates, compositions, and processes, related thereto” (priority 2015, dated 2019).

Common to all, as to type: in vivo
In assay [1] the test system is Beet Armyworm (Spodoptera exigua, LAPHEG). In words: Bioassay on Beet Armyworm (BAW), 128-well diet tray assay. The note with it: Species BAW (Beet Armyworm), read-out: BAW (Biological Results, rating). The procedure, abridged:
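Artificial diet surface-treated with 50 μg/cm^2 test molecule in 90:10 acetone-water, dried, then infested with one to five second instar larvae per well. Held covered and vented at 25° C., 14:10 light-dark for five to seven days; percent mortality recorded per well and averaged over eight wells.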

For assay [2], the system named is Yellow Fever Mosquito (Aedes aegypti, AEDSAE). In words: Bioassay on Yellow Fever Mosquito (YFM), 96-well plate larval assay. The settings on record: Species YFM (Yellow Fever Mosquito). The method, boiled down:
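Compound stocks at 4000 ppm in DMSO were diluted with 90:10 water/acetone, and 15 μL aliquots were dispensed into six replicate plates. About 1-day-old larvae in liver-powder water were added per well. Plates were covered and held at room temperature for 3 days before each well was scored for mortality.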

In assay [3] the test system is Cabbage Looper (Trichoplusia ni, TRIPNI). In words: Bioassay on Cabbage Looper (CL), 128-well diet tray assay. The settings on record: Trichoplusia ni; Species CL (Cabbage Looper); read-out: CL (Biological Results, rating). The method, boiled down:
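Using eight wells per molecule, artificial diet was dosed at 50 μg/cm^2 with compound in 90:10 acetone-water and dried before one to five second-instar larvae were added per well. Covered vented trays were kept at 25° C. with 14:10 light-dark for five to seven days, then per-well percent mortality was recorded and averaged.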

Molecules are shown by their SMILES.

For the compound `Cc1cc(N)ccc1NC(=O)c1cc(NC(=O)[C@H]2[C@H](c3ccc(Br)c(Cl)c3)C2(Cl)Cl)ccc1Cl` (relative stereo) [F324, N-(4-Amino-2-methylphenyl)-5-(trans-3-(4-bromo-3-chlorophenyl)-2,2-dichlorocyclopropane-1-carboxamido)-2-chlorobenzamide], the pest or weed control at 50 µg/cm2 in assay [1] and in assay [3] was 50 to 100% throughout. Also, the “YFM (Biological Results, rating)” value in assay [2] is listed as “A (80-100)”.
`Nc1c(F)ccc(NC(=O)c2cc(NC(=O)[C@H]3[C@H](c4ccc(Br)c(Cl)c4)C3(Cl)Cl)ccc2Cl)c1F` (relative stereo) [F325, N-(3-Amino-2,4-difluorophenyl)-5-(trans-3-(4-bromo-3-chlorophenyl)-2,2-dichlorocyclopropane-1-carboxamido)-2-chlorobenzamide]: the pest or weed control at 50 µg/cm2 in assay [1] and in assay [3] was 50 to 100% each time. Also, the “YFM (Biological Results, rating)” value in assay [2] is listed as “A (80-100)”.
With `Nc1cccc(NC(=O)c2cc(NC(=O)[C@H]3[C@H](c4cc(Cl)cc(Cl)c4)C3(Cl)Cl)ccc2Cl)n1` (relative stereo) [F326, trans-N-(6-aminopyridin-2-yl)-2-chloro-5-(2,2-dichloro-3-(3,5-dichlorophenyl)cyclopropane-1-carboxamido)benzamide], the pest or weed control at 50 µg/cm2 in assay [1] and in assay [3] was 50 to 100% in each case. Moreover, in assay [2], the “YFM (Biological Results, rating)” value is “A (80-100)”.
As to `Nc1cccc(NC(=O)c2cc(NC(=O)[C@H]3[C@H](c4ccc(F)c(Cl)c4)C3(Cl)Cl)ccc2Cl)n1` (relative stereo) [F327, N-(6-Aminopyridin-2-yl)-2-chloro-5-(trans-2,2-dichloro-3-(3-chloro-4-fluorophenyl)cyclopropane-1-carboxamido)benzamide], the pest or weed control at 50 µg/cm2 in assay [1] and in assay [3] was 50 to 100% in each case. For the same compound, the “YFM (Biological Results, rating)” value in assay [2] was “A (80-100)”.
Turning to `C=Cc1ccc([C@H]2[C@H](C(=O)Nc3ccc(Cl)c(C(=O)N(C)c4ccc(F)cc4)c3)C2(Cl)Cl)cc1Cl` (relative stereo) [F329, 2-Chloro-5-(trans-2,2-dichloro-3-(3-chloro-4-vinylphenyl)cyclopropane-1-carboxamido)-N-(4-fluorophenyl)-N-methylbenzamide], the pest or weed control at 50 µg/cm2 in assay [1] and in assay [3] was 50 to 100% throughout. For the same compound, in assay [2], the “YFM (Biological Results, rating)” value is “A (80-100)”.
On to `O=C(Nc1ccc(F)cc1)c1cc(NC(=O)[C@H]2[C@H](c3ccc(Cl)c(Br)c3)C2(Cl)Cl)ccc1Cl` (relative stereo) [F330, 5-(trans-3-(3-Bromo-4-chlorophenyl)-2,2-dichlorocyclopropane-1-carboxamido)-2-chloro-N-(4-fluorophenyl)benzamide], for which the pest or weed control at 50 µg/cm2 in assay [1] and in assay [3] was 50 to 100% throughout. Moreover, the “YFM (Biological Results, rating)” value in assay [2] was “A (80-100)”.
`O=C(Nc1ccc(F)cc1F)c1cc(NC(=O)[C@H]2[C@H](c3ccc(Cl)c(Br)c3)C2(Cl)Cl)ccc1Cl` (relative stereo) [F331, 5-(trans-3-(3-Bromo-4-chlorophenyl)-2,2-dichlorocyclopropane-1-carboxamido)-2-chloro-N-(2,4-difluorophenyl)benzamide]: the pest or weed control at 50 µg/cm2 in assay [1] and in assay [3] was 50 to 100% in each case. Further, the “YFM (Biological Results, rating)” value in assay [2] was “A (80-100)”.
For the compound `N#Cc1cc(F)ccc1NC(=O)c1cc(NC(=O)[C@H]2[C@H](c3ccc(Cl)c(Br)c3)C2(Cl)Cl)ccc1Cl` (relative stereo) [F332, 5-(trans-3-(3-Bromo-4-chlorophenyl)-2,2-dichlorocyclopropane-1-carboxamido)-2-chloro-N-(2-cyano-4-fluorophenyl)benzamide], the pest or weed control at 50 µg/cm2 in assay [1] and in assay [3] was 50 to 100% throughout. In addition, in assay [2], the “YFM (Biological Results, rating)” value is reported as “A (80-100)”.
For the compound `N#Cc1cc(F)ccc1NC(=O)c1cc(NC(=O)[C@H]2[C@H](c3cc(Cl)cc(Br)c3)C2(Cl)Cl)ccc1Cl` (relative stereo) [F333, 5-(trans-3-(3-Bromo-5-chlorophenyl)-2,2-dichlorocyclopropane-1-carboxamido)-2-chloro-N-(2-cyano-4-fluorophenyl)benzamide], the pest or weed control at 50 µg/cm2 in assay [1] and in assay [3] was 50 to 100% each time. Further, in assay [2], the “YFM (Biological Results, rating)” value was “A (80-100)”.
Turning to `Cc1cc(NC(=O)OC(C)(C)C)ccc1NC(=O)c1cc(NC(=O)[C@H]2[C@H](c3ccc(Cl)c(Br)c3)C2(Cl)Cl)ccc1Cl` (relative stereo) [F334, tert-Butyl (4-(5-(trans-3-(3-bromo-4-chlorophenyl)-2,2-dichlorocyclopropane-1-carboxamido)-2-chlorobenzamido)-3-methylphenyl)carbamate], the pest or weed control at 50 µg/cm2 in assay [1] and in assay [3] was 50 to 100% in each case. Besides, in assay [2], the “YFM (Biological Results, rating)” value is “A (80-100)”.
Regarding `Cc1cc(N)ccc1NC(=O)c1cc(NC(=O)[C@H]2[C@H](c3cc(Cl)cc(Br)c3)C2(Cl)Cl)ccc1Cl` (relative stereo) [F337, N-(4-Amino-2-methylphenyl)-5-(trans-3-(3-bromo-5-chlorophenyl)-2,2-dichlorocyclopropane-1-carboxamido)-2-chlorobenzamide], the pest or weed control at 50 µg/cm2 in assay [1] and in assay [3] was 50 to 100% each time. The “YFM (Biological Results, rating)” value in assay [2] is given as “A (80-100)”.
Take `Nc1c(F)ccc(NC(=O)c2cc(NC(=O)[C@H]3[C@H](c4cc(Cl)cc(Br)c4)C3(Cl)Cl)ccc2Cl)c1F` (relative stereo) [F339, N-(3-Amino-2,4-difluorophenyl)-5-(trans-3-(3-bromo-5-chlorophenyl)-2,2-dichlorocyclopropane-1-carboxamido)-2-chlorobenzamide]: the pest or weed control at 50 µg/cm2 in assay [1] and in assay [3] was 50 to 100% each time. In assay [2], the “YFM (Biological Results, rating)” value was “A (80-100)”.
As to `N#Cc1cc(F)ccc1NC(=O)c1cc(NC(=O)[C@H]2[C@H](c3cccc(C(F)(F)F)c3)C2(Cl)Cl)ccc1Cl` (relative stereo) [F340, trans-2-Chloro-N-(2-cyano-4-fluorophenyl)-5-(2,2-dichloro-3-(3-(trifluoromethyl)phenyl)cyclopropane-1-carboxamido)benzamide], the pest or weed control at 50 µg/cm2 in assay [1] and in assay [3] was 50 to 100% throughout. The “YFM (Biological Results, rating)” value in assay [2] is recorded as “A (80-100)”.
Regarding `Nc1c(F)ccc(NC(=O)c2cc(NC(=O)[C@H]3[C@H](c4cccc(C(F)(F)F)c4)C3(Cl)Cl)ccc2Cl)c1F` (relative stereo) [F341, trans-N-(3-Amino-2,4-difluorophenyl)-2-chloro-5-(2,2-dichloro-3-(3-(trifluoromethyl)phenyl)cyclopropane-1-carboxamido)benzamide], the pest or weed control at 50 µg/cm2 in assay [1] and in assay [3] was 50 to 100% each time. Further, the “YFM (Biological Results, rating)” value in assay [2] is given as “A (80-100)”.
Take `N#Cc1cc(Cl)cc([C@H]2[C@H](C(=O)Nc3ccc(Cl)c(C(=O)Nc4ncc(F)cc4F)c3)C2(Cl)Cl)c1` (relative stereo) [F342, trans-2-Chloro-5-(2,2-dichloro-3-(3-chloro-5-cyanophenyl)cyclopropane-1-carboxamido)-N-(3,5-difluoropyridin-2-yl)benzamide]: the pest or weed control at 50 µg/cm2 in assay [1] and in assay [3] was 50 to 100% in each case. In assay [2], the “YFM (Biological Results, rating)” value is listed as “A (80-100)”.
With `N#Cc1cc(Cl)cc([C@H]2[C@H](C(=O)Nc3ccc(Cl)c(C(=O)Nc4ccc(F)cc4C#N)c3)C2(Cl)Cl)c1` (relative stereo) [F343, trans-2-Chloro-N-(2-cyano-4-fluorophenyl)-5-(2,2-dichloro-3-(3-chloro-5-cyanophenyl)cyclopropane-1-carboxamido)benzamide], the pest or weed control at 50 µg/cm2 in assay [1] and in assay [3] was 50 to 100% in each case. Besides, in assay [2], the “YFM (Biological Results, rating)” value was “A (80-100)”.
As for `N#Cc1cc(Cl)cc([C@H]2[C@H](C(=O)Nc3ccc(Cl)c(C(=O)Nc4ccc(F)c(N)c4F)c3)C2(Cl)Cl)c1` (relative stereo) [F344, trans-N-(3-Amino-2,4-difluorophenyl)-2-chloro-5-(2,2-dichloro-3-(3-chloro-5-cyanophenyl)cyclopropane-1-carboxamido)benzamide], the pest or weed control at 50 µg/cm2 in assay [1] and in assay [3] was 50 to 100% throughout. Besides, the “YFM (Biological Results, rating)” value in assay [2] is given as “A (80-100)”.
`Nc1c(F)cnc(NC(=O)c2cc(NC(=O)[C@H]3[C@H](c4cc(Cl)cc(Cl)c4)C3(Cl)Cl)ccc2Cl)c1F` (relative stereo) [F345, trans-N-(4-Amino-3,5-difluoropyridin-2-yl)-2-chloro-5-(2,2-dichloro-3-(3,5-dichlorophenyl)cyclopropane-1-carboxamido)benzamide]: the pest or weed control at 50 µg/cm2 in assay [1] and in assay [3] was 50 to 100% in each case. Also, the “YFM (Biological Results, rating)” value in assay [2] is reported as “A (80-100)”.
Take `O=C(Nc1ccc(F)cc1F)c1cc(NC(=O)[C@H]2[C@H](c3ccc(F)c(F)c3)C2(Cl)Cl)ccc1Cl` (relative stereo) [F346, 2-Chloro-5-(trans)-(2,2-dichloro-3-(3,4-difluorophenyl)cyclopropane-1-carboxamido)-N-(2,4-difluorophenyl)benzamide]: the pest or weed control at 50 µg/cm2 in assay [1] and in assay [3] was 50 to 100% throughout. In assay [2], the “YFM (Biological Results, rating)” value was “A (80-100)”.
